Test [1] deals with human D2 (D2 long receptor) (Homo sapiens, UniProt P14416). Description: biochemical. Format: binding.
In test [2] the target is human D3 (Homo sapiens, UniProt P35462). Briefly: D3 radioligand binding assay.
Test [3] has as its target T1, human D4 (D4.4 variant) (Homo sapiens, UniProt P21917).
T1 sequence (P21917 1-419): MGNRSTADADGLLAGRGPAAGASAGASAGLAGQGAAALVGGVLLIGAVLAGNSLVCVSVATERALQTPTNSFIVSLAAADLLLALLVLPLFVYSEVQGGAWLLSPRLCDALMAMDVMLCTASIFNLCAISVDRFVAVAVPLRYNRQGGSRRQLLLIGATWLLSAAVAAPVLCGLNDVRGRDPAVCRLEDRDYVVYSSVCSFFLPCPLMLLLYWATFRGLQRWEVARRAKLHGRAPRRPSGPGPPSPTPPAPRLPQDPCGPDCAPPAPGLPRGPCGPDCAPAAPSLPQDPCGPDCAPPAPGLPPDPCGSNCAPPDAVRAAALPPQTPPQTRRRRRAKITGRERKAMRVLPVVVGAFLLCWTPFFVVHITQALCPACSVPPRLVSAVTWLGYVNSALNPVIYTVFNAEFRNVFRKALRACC
Description: biochemical. It is filed as binding.

Test [4] has as its target T2, human D4 (Homo sapiens, UniProt P21917).
T2 sequence (P21917 1-419): T1 sequence (P21917 1-419)
Briefly: cell-based.

In test [5] the target is T2, human D4. Description: Arrestin BRET. Format: cell-based. On the technique in general: BRET reads energy transfer from a luciferase to a nearby fluorophore.
The target in test [6] is T3, cloned human D4 (Homo sapiens, UniProt P21917).
T3 sequence (P21917 1-419): T1 sequence (P21917 1-419)
Briefly: cell-based. As to conditions: Tango EC50, D4 β-arrestin.

In test [7] the target is T1, human D4 (D4.4 variant). Description: cell-based.
In test [8] the test system is D4 dopamine receptor. Description: Signaling bias, G protein versus β-arrestin, versus quinpirole. It is filed as cell-based, human.

Chain of human D2 (D2 long receptor) (P14416 whole entry): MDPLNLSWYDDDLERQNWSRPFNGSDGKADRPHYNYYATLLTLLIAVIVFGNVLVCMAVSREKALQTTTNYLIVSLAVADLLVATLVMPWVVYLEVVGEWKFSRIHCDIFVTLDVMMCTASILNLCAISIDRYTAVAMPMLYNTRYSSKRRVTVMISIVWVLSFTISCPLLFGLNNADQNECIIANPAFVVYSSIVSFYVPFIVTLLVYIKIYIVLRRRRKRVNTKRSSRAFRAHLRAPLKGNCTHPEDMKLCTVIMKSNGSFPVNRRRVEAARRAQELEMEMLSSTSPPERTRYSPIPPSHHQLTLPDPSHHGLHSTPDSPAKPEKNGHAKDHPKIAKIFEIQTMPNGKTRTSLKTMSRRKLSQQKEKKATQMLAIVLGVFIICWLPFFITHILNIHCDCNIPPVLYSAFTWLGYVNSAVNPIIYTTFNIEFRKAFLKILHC
Chain of human D3 (P35462 whole entry): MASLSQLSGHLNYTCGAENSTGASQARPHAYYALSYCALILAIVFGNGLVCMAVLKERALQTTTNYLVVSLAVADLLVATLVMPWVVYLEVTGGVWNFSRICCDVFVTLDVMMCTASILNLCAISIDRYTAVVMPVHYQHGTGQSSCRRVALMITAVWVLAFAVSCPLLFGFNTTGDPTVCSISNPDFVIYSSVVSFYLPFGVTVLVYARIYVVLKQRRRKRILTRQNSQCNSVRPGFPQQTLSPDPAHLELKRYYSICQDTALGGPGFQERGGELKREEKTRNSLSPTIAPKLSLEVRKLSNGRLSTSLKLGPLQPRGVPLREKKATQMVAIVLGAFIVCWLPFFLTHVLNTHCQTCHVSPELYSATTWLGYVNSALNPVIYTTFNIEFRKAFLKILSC

Broadly, the Ki is a measure of affinity in units of concentration, obtained from inhibition or displacement. Read a low Ki as higher affinity. Consider `C#CCOc1ccccc1CN1CC[C@@]2(C1)C(=O)Nc1ccccc12` [ZINC375299581], for which the Ki was more than 10 µM in test [1], more than 10 µM in test [2] and 0.18 µM in test [3].

In the case of `C[C@@H]1CCCN(C(C)(C)CNc2nc(C3CC3)ns2)C1` [ZINC92642352], the inhibition constant (Ki) is more than 10 µM in test [1], more than 10 µM in test [2] and 0.82 µM in test [3].

As for `OC[C@H](Cc1ccc(F)cc1)NCc1ccn(-c2ccccc2)n1` [ZINC358506216], the Ki in test [1] is 5.88 µM; in test [2] it was 6.54 µM; in test [3], 0.25 µM.

The term EC50 denotes the concentration that produces a half-maximal response. A high value points to a need for much substance. As to `CC(C)N1C[C@H](C)[C@H](NC(=O)N2Cc3ccccc3[C@@H]2C)C1` [ZINC621433143], the Ki was more than 10 µM in test [1], more than 10 µM in test [2] and 0.669 µM in test [3]. The EC50 in test [4] came out at 3.15 µM; in test [5] it was 1.25 µM; in test [6] it was 0.898 µM; in test [7], 0.35 µM. Besides, in test [8], the β-arrestin bias is 7.

Take `O[C@]1(CNCc2cnn(-c3ccc(Br)cc3)c2)CCSC1` [ZINC176752603]: the inhibitory constant (Ki) in test [1] is more than 10 µM; in test [2], more than 10 µM; in test [3], 0.3 µM.

As for `C[C@H](CNC(=O)c1coc2ccc(Cl)cc12)N1CCCC1` [ZINC651262870], the inhibitory constant (Ki) is more than 10 µM in test [1], more than 10 µM in test [2] and 0.44 µM in test [3]. Besides, the EC50 in test [7] was found to be 31 µM.

Turning to `CC(C)N1C[C@H](C)[C@H](NC(=O)c2cccc3cc[nH]c23)C1` [ZINC247398558], the Ki in test [1] was more than 10 µM; in test [2] it was more than 10 µM; in test [3] it was 0.21 µM.

As for `N#Cc1ccnc(SC[C@]2(O)CCN(Cc3ccccc3)C2)c1` [ZINC601953994], the Ki is more than 10 µM in test [1], more than 10 µM in test [2] and 0.98 µM in test [3].

Turning to `C[C@H]1CN(C2CC2)C[C@H]1NC(=O)c1cc2cc(Br)ccc2o1` [ZINC467716766], the inhibitory constant (Ki) is more than 10 µM in test [1], more than 10 µM in test [2] and 0.7 µM in test [3]. The half-maximal effective concentration (EC50) in test [7] worked out at 34.8 µM.

Regarding `CCCC[C@H](CN)NC(=O)Nc1cnn(-c2ccc(C)cc2C)c1` [ZINC415558697], the Ki was 2 µM in test [1], 5.87 µM in test [2] and 0.99 µM in test [3].

`C[C@H]1CN(C2CC2)C[C@H]1NC(=O)c1cc2cc([N+](=O)[O-])ccc2s1` [ZINC268141382]: the Ki is more than 10 µM in test [1], more than 10 µM in test [2] and 0.56 µM in test [3]. A half-maximal effect in test [7] (EC50) was put at 9.9 µM.

In the case of `Cc1ccc(CNCCCn2cccn2)cc1Br` [ZINC127859549], the Ki is more than 10 µM in test [1], 3.57 µM in test [2] and 0.26 µM in test [3]. This compound also yielded an EC50 in test [7] of 10.4 µM.

In the case of `CC1(C)CCN(CC(=O)NC[C@@H]2CCC[C@H]2C2CC2)C1` [ZINC572302473], the values for the Ki in test [1], in test [2] and in test [3] were more than 10 µM, more than 10 µM and 0.91 µM, respectively.

Consider `CCC[C@H](C)[C@H](CO)NCCc1nc(-c2ccc(Cl)cc2)no1` [ZINC567992445], for which the inhibitory constant (Ki) in test [1] was more than 10 µM; in test [2], more than 10 µM; in test [3] it was 0.85 µM. The EC50 in test [7] turned out to be 4.82 µM.

As to `C=Cn1cc(CNC[C@@H](CO)Cc2ccccc2Br)cn1` [ZINC278933042], the values for the Ki in test [1], in test [2] and in test [3] were more than 10 µM, more than 10 µM and 0.27 µM, respectively. Also, the EC50 in test [6] was 22.3 µM; in test [7], 0.041 µM.

As to `CCC(CC)[C@@H](O)CNCc1cnc(-c2ccccc2F)s1` [ZINC449156693], the inhibitory constant (Ki) in test [1] is more than 10 µM; in test [2] it was more than 10 µM; in test [3], 0.76 µM.

With `Cc1cccc(CCNCc2ccn(-c3ccccc3)n2)c1` [ZINC237938360], the inhibition constant (Ki) was 5.72 µM in test [1], 1.07 µM in test [2] and 0.18 µM in test [3].

As to `O=C(CN1C[C@@H](O)C[C@@H]1C1CC1)Nc1ccc(Br)cc1` [ZINC640028109], the results for the Ki in test [1], in test [2] and in test [3] were more than 10 µM, more than 10 µM and 0.81 µM, respectively.

`C=C(C)COCCNC[C@H](O)Cc1ccc(C(F)(F)F)cc1` [ZINC569686370]: the figures for the inhibition constant (Ki) in test [1], in test [2] and in test [3] were more than 10 µM, more than 10 µM and 0.55 µM, respectively. Further, the EC50 in test [7] is 7.8 µM.

As for `C[C@H](N[C@H](CO)Cc1ccccc1)c1cc2c(s1)CCC2` [ZINC437075156], the inhibition constant Ki was more than 10 µM in test [1], more than 10 µM in test [2] and 0.19 µM in test [3]. The same compound registered a 50% effective concentration (EC50) in test [7] of 10.4 µM.

The values are drawn from paper PMC6383769 (Nature, 2019).
